Legend:
[1] = tested on: T-cells; assay: Relief of 100 mer MUC1 peptide-induced suppression/anergy of T-cell proliferation (allo-PBLs, 3H-thymidine incorporation); format: cell-based, human; conditions: 100 mer MUC1 peptide 25 μg/ml; 16 mer at varying doses; FIG. 3
Procedure: In the experiment of FIG. 3, purified T-cells (10^6/ml) were cultured in AIM V medium with allo-PBLs in the presence (100 mer MUC1 peptide group; right panel) or absence (media group; left panel) of 100 mer MUC1 synthetic peptide (25 μg/ml) for 6-7 days. At this time, the T-cells were harvested and plated in 96 well flat bottom plates at 10^5/well with allo-PBLs (10^5/well) in the presence or absence of 100 mer MUC1 peptide (25 μg/ml), and the 16 mer MUC1 peptide (less than one tandem repeat) at varying doses. The wells were pulsed with ^3H-thymidine (1 μCi/well) on the fourth day of culture followed by harvesting on the fifth day. ^3H-Thymidine incorporation into the DNA of proliferating T-cells was measured by liquid scintillation counter. Data are shown as mean CPM±standard deviations. Each group was set up in replicates of 3 wells.

[2] = tested on: T cells; assay: T cell proliferation assay with allo PBLs (3H-thymidine incorporation) with synthetic MUC-1 tandem repeat peptides; format: cell-based, human; conditions: peptide 10 μg/ml, 6-7 days then 5 days, FIG. 2
Procedure: Enriched T cell populations were purified from buffy coats obtained from normal red cross donors using nylon wool columns by previously reported procedures. […] For the allo MLR, mitomycin C treated allogeneic PBLs were co-cultured with purified T cells in the presence or absence of affinity purified MUC-1 mucin or control OSM. In most of the experiments, the T cells were cultured 6-7 days in AIM V medium in the absence or presence of MUC-1, MUC-1 derivative or OSM at the indicated concentration. After this time, the T cells were harvested, washed and cultured as indicated.
For the experiment depicted in FIG. 2, purified T cells (10^6/ml) were cultured in AIM V medium with allo PBLs in the absence or presence of MUC-1, MUC-1 derivative or OSM 10 μg/ml for 6-7 days. T cells were harvested and plated in 96 well flat bottom plates at 10^5/well with allo PBLs (10^5/well), in the presence or absence of affinity purified MUC-1, MUC-1 derivative or OSM. Control cultures were treated with either 50 U/ml IL-2 or 1 μg/ml anti-CD28 Mab. After 4 days of culture, ^3H-thymidine (1 μCi/well) was added. The cells were harvested on the fifth day and ^3H-thymidine incorporation was measured by liquid scintillation.

[3] = tested on: human T-cell cultures; assay: Mixed lymphocyte reaction / T-cell proliferation (3H-thymidine incorporation) with affinity purified MUC-1 mucin; format: cell-based; conditions: purified MUC-1 mucin added to human T-cell cultures; FIG. 1
Procedure: The mixed lymphocyte reaction is conducted by mixing the lymphocytes of HLA disparate individuals in in vitro tissue cultures. The “responder population” in this experiment is purified T-cells from one population, while the “stimulator” population in this experiment is the peripheral blood lymphocytes obtained from an HLA mismatched individual donor. The two cell populations were mixed and cultured either in the presence or absence of various doses of B27.29 affinity purified MUC-1 mucin that was purified from a pleural effusion fluid. The results of this experiment are depicted in FIG. 1.
In the experiment depicted in FIG. 1, 10^6 T-cells were cultured in AIM V medium in presence of 10^6 allo-PBLs (mitomycin C treated) with or without the indicated concentration of affinity purified MUC1 or OSM for 6-7 days. At this time the T-cells were harvested and plated at 10^5/well in 96 well flat bottom plates and the polyclonal stimuli allo-PBLs (10^5/well), or anti-CD3 (1 μg/ml) or PHA (0.2 μg/ml), in presence or absence of MUC1 or OSM for 4 days. Each group was set up in a replicate of five wells. ^3H-thymidine (1 μCi/well) was added and the culture plates were further incubated for 18-24 h before harvesting. ^3H-thymidine incorporation into the DNA of proliferating T-cells was measured by liquid scintillation counting. […]

| Substance | reversal of suppression/anergy induced by a MUC-1 100-mer peptide [1] | level of T cell proliferation relative to control [2] | T-cell proliferation against allo-antigenic (or mitogenic) stimulus in vitro [3] |
| --- | --- | --- | --- |
| GVTSAPDTRPAPGSTA [BP16] | reverses | not observed |  |
| purified human MUC-1 mucin: B27.29 affinity purified MUC-1 mucin glycoprotein from cancer patient pleural effusion/ascites fluid |  |  | strongly inhibits |

— US20020159969A1, “Small peptide-based therapeutics for reversing cancer-associated MUC-1 mucin-induced immunosuppression” (priority 1997, published 2002)
